Laboratory results as given in publication PMC9917560, “Design, Synthesis and Antimicrobial Evaluation of New N-(1-Hydroxy-1,3-dihydrobenzo[c][1,2]oxaborol-6-yl)(hetero)aryl-2-carboxamides as Potential Inhibitors of Mycobacterial Leucyl-tRNA Synthetase” (International Journal of Molecular Sciences, 2023).
Read-outs that look alike come from different tables or passages of the source.

What was measured:
[1] = test system: Mycobacterium tuberculosis H37Ra ITM-M006710 (ATCC 9431); experiment: Antimycobacterial microdilution (resazurin) vs Mtb H37Ra; type: cell-based; conditions: Middlebrook 7H9, resazurin, recalculated from µg/mL, read-out: MIC Mtb H37Ra
[2] = test system: Mycobacterium tuberculosis H37Rv CNCTC My 331/88 (ATCC 27294); experiment: Microplate Alamar Blue assay vs Mtb H37Rv; type: cell-based; conditions: Mycobacterium tuberculosis, pH 6.6, MABA, Middlebrook 7H9 pH 6.6, recalculated from µg/mL; read-out: MIC Mtb H37Rv
[3] = test system: Mycobacterium kansasii DSM 44,162 (ATCC 12478); experiment: Antimycobacterial microdilution (resazurin) vs M. kansasii; type: cell-based; conditions: Middlebrook 7H9, resazurin, read-out: MIC M. kansasii
[4] = test system: Mycobacterium avium DSM 44,156 (ATCC 25291); experiment: Antimycobacterial microdilution (resazurin) vs M. avium; type: cell-based; conditions: Mycobacterium avium, Middlebrook 7H9, resazurin; read-out: MIC M. avium
[5] = test system: Mycolicibacterium aurum DSM 43,999 (ATCC 23366); experiment: Antimycobacterial microdilution (resazurin) vs M. aurum; type: cell-based; conditions: Middlebrook 7H9, resazurin, read-out: MIC M. aurum
[6] = test system: Mycolicibacterium smegmatis DSM 43,465 (ATCC 607); experiment: Antimycobacterial microdilution (resazurin) vs M. smegmatis; type: cell-based; conditions: Middlebrook 7H9, resazurin, read-out: MIC M. smeg.
[7] = test system: Mtb IZAK (MDR clinical isolate); experiment: microbe, parasite or virus in culture; type: cell-based; conditions: Mycobacterium tuberculosis, read-out: MIC Mtb IZAK
[8] = test system: Mtb MATI (MDR clinical isolate); experiment: microbe, parasite or virus in culture; type: cell-based; conditions: Mycobacterium tuberculosis, read-out: MIC Mtb MATI
[9] = test system: Staphylococcus aureus subsp. aureus CCM 4223 (ATCC 29213); experiment: Antibacterial microdilution broth (EUCAST); type: cell-based; conditions: read-out: MIC Staphylococcus aureus subsp. aureus
[10] = test system: methicillin-resistant Staphylococcus aureus subsp. aureus (MRSA) CCM 4750 (ATCC 43300); experiment: microbe, parasite or virus in culture; type: cell-based; conditions: read-out: MIC Methicillin-resistant Staphylococcus aureus subsp. aureus
[11] = test system: Staphylococcus epidermidis CCM 4418 (ATCC 12228); experiment: Antibacterial microdilution broth (EUCAST); type: cell-based; conditions: read-out: MIC Staphylococcus epidermidis
[12] = test system: Enterococcus faecalis CCM 4224 (ATCC 29212); experiment: Antibacterial microdilution broth (EUCAST); type: cell-based; conditions: read-out: MIC Enterococcus faecalis
[13] = test system: Escherichia coli CCM 3954 (ATCC 25922); experiment: Antibacterial microdilution broth (EUCAST); type: cell-based; conditions: Escherichia coli, read-out: MIC Escherichia coli
[14] = test system: Klebsiella pneumoniae CCM 4415 (ATCC 10031); experiment: Antibacterial microdilution broth (EUCAST); type: cell-based; conditions: Klebsiella pneumoniae, read-out: MIC Klebsiella pneumoniae
[15] = test system: Acinetobacter baumannii DSM 30007 (ATCC 19606); experiment: Antibacterial microdilution broth (EUCAST); type: cell-based; conditions: read-out: MIC Acinetobacter baumannii
[16] = test system: Pseudomonas aeruginosa CCM 3955 (ATCC 27853); experiment: Antibacterial microdilution broth (EUCAST); type: cell-based; conditions: read-out: MIC Pseudomonas aeruginosa
[17] = test system: Candida albicans CCM 8320 (ATCC 24433); experiment: Antifungal microdilution broth (EUCAST); type: cell-based; conditions: Candida albicans, read-out: MIC Candida albicans
[18] = test system: Candida krusei CCM 8271 (ATCC 6258); experiment: Antifungal microdilution broth (EUCAST); type: cell-based; conditions: Pichia kudriavzevii, read-out: MIC Candida krusei
[19] = test system: Candida parapsilosis CCM 8260 (ATCC 22019); experiment: Antifungal microdilution broth (EUCAST); type: cell-based; conditions: Lodderomyces parapsilosis, read-out: MIC Candida parapsilosis
[20] = test system: Candida tropicalis CCM 8264 (ATCC 750); experiment: Antifungal microdilution broth (EUCAST); type: cell-based; conditions: read-out: MIC Candida tropicalis
[21] = test system: Aspergillus fumigatus ATCC 204305; experiment: Antifungal microdilution broth (EUCAST); type: cell-based; conditions: Aspergillus fumigatus, ATCC204305, read-out: MIC Aspergillus fumigatus
[22] = test system: Aspergillus flavus CCM 8363; experiment: Antifungal microdilution broth (EUCAST); type: cell-based; conditions: Aspergillus flavus, CCM8363, read-out: MIC Aspergillus flavus
[23] = test system: Lichtheimia corymbifera CCM 8077; experiment: Antifungal microdilution broth (EUCAST); type: cell-based; conditions: Lichtheimia corymbifera, CCM8077, read-out: MIC Lichtheimia corymbifera
[24] = test system: Trichophyton interdigitale CCM 8377 (ATCC 9533); experiment: Antifungal microdilution broth (EUCAST); type: cell-based; conditions: Trichophyton interdigitale, read-out: MIC Trichophyton interdigitale
HepG2 cell line = experiment: Cytotoxicity screening, CellTiter 96 assay; conditions: for IC50: Homo sapiens, HepG2, 24 h, read-out: IC50 HepG2
Mtb laboratory ID IZAK = type: cell-based, Mycobacterium tuberculosis
Mtb laboratory ID MATI = type: cell-based, Mycobacterium tuberculosis

O=C(Nc1ccc2c(c1)B(O)OC2)c1cnc(Cl)cn1 [Compound 5, 5-chloro-N-(1-hydroxy-1,3-dihydrobenzo[c][1,2]oxaborol-6-yl)pyrazine-2-carboxamide]
82.4 µM: IC50 (HepG2 cell line)
13.5 µM: MIC [5]
108 µM: MIC [3]
21.6 µM: MIC [2]
43.2 µM: MIC [7] | MIC [8]
27 µM: MIC [1]
54 µM: MIC [4] | MIC [6]
> 500 µM: MIC ([9]; 24h incubation) | MIC ([9]; 48h incubation) | MIC ([10]; 24 h) | MIC ([10]; 48 h) | MIC ([11]; 24h incubation) | MIC ([11]; 48h incubation) | MIC ([12]; 24h incubation) | MIC ([12]; 48h incubation) | MIC ([13]; 24h incubation) | MIC ([13]; 48h incubation) | MIC ([14]; 24h incubation) | MIC ([14]; 48h incubation) | MIC ([15]; 24h incubation) | MIC ([15]; 48h incubation) | MIC ([16]; 24h incubation) | MIC ([16]; 48h incubation) | MIC ([17]; 24h incubation) | MIC ([17]; 48h incubation) | MIC ([18]; 24h incubation) | MIC ([18]; 48h incubation) | MIC ([19]; 24h incubation) | MIC ([19]; 48h incubation) | MIC ([20]; 24h incubation) | MIC ([20]; 48h incubation) | MIC ([21]; 24h incubation) | MIC ([21]; 48h incubation) | MIC ([22]; 24h incubation) | MIC ([22]; 48h incubation) | MIC ([23]; 24h incubation) | MIC ([23]; 48h incubation) | MIC ([24]; 72h incubation) | MIC ([24]; 120h incubation)
233.8 to 235.3 °C: melting point

O=C(Nc1ccc2c(c1)B(O)OC2)c1cnc2ccccc2n1 [Compound 17, N-(1-hydroxy-1,3-dihydrobenzo[c][1,2]oxaborol-6-yl)quinoxaline-2-carboxamide]
102 µM: MIC [4]
non-toxic: toxicity to HepG2 up to highest tested concentration (HepG2 cell line; tested up to 500 µM (2, 3), 250 µM (12, 17), 100 µM (6, 7, 11) because of solubility)
> 500 µM: MIC ([9]; 24h incubation) | MIC ([9]; 48h incubation) | MIC ([10]; 24 h) | MIC ([10]; 48 h) | MIC ([11]; 24h incubation) | MIC ([11]; 48h incubation) | MIC ([12]; 24h incubation) | MIC ([12]; 48h incubation) | MIC ([13]; 24h incubation) | MIC ([13]; 48h incubation) | MIC ([14]; 24h incubation) | MIC ([14]; 48h incubation) | MIC ([15]; 24h incubation) | MIC ([15]; 48h incubation) | MIC ([16]; 24h incubation) | MIC ([16]; 48h incubation) | MIC ([17]; 24h incubation) | MIC ([17]; 48h incubation) | MIC ([18]; 24h incubation) | MIC ([18]; 48h incubation) | MIC ([19]; 24h incubation) | MIC ([19]; 48h incubation) | MIC ([20]; 24h incubation) | MIC ([20]; 48h incubation) | MIC ([21]; 24h incubation) | MIC ([21]; 48h incubation) | MIC ([22]; 24h incubation) | MIC ([22]; 48h incubation) | MIC ([23]; 24h incubation) | MIC ([23]; 48h incubation) | MIC ([24]; 72h incubation) | MIC ([24]; 120h incubation)
> 250 µM: IC50 (HepG2 cell line)
41 µM: MIC [7] | MIC [8]
20.5 µM: MIC [2]
12.8 µM: MIC [5] | MIC [6]
25.6 µM: MIC [3]
> 819 µM: MIC [1]

CO[C@H]1/C=C/O[C@@]2(C)Oc3c(C)c(O)c4c(O)c(c(/C=N/N5CCN(C)CC5)c(O)c4c3C2=O)NC(=O)/C(C)=C\C=C\[C@H](C)[C@H](O)[C@@H](C)[C@@H](O)[C@@H](C)[C@H](OC(C)=O)[C@@H]1C [RIF, rifampicin, reference compound]
0.08 µM: MIC [4]
0.47 µM: MIC [5]
>9.72 µM: Concentration (Mtb laboratory ID IZAK) | Concentration (Mtb laboratory ID MATI)
15.2 µM: MIC [6]
0.00759 µM: MIC [1]
0.06 µM: MIC [3]
resistant: Susceptibility (Mtb laboratory ID IZAK; strain IZAK, CLSI breakpoints 2020) | Susceptibility (Mtb laboratory ID MATI; strain MATI, CLSI breakpoints 2021)
